# According to patent US20040180917A1, “Novel tricyclic dihydro-quinoline derivatives, method for preparing same and pharmaceutical compositions containing the same” (priority 2001, published 2004):
# Tested on: L1210
# Assay: In vitro cytotoxicity, Microculture Tetrazolium Assay, L1210
# Type: cell-based
# Settings: L1210 murine leukaemia, incubated for 2 days; read-out: IC50 (concentration of cytotoxic agent which inhibits proliferation of the treated cells by 50%)
# Procedure: Three cell lines were used:
# The cells are cultured in RPMI 1640 complete culture medium containing 10% foetal calf serum, 2 mM glutamine, 50 units/ml of penicillin, 50 μg/ml of streptomycin and 10 mM Hepes, pH=7.4. The cells are distributed on microplates and are exposed to the cytotoxic compounds. The cells are then incubated for 2 days (L1210) or 4 days (A549, HT29). The number of viable cells is then quantified by a colorimetric assay, the Microculture Tetrazolium Assay (Cancer Res. 1987, 47, 939-942).
smiles,measurement,value
COc1cc(C2C3=C(COC3=O)Nc3c2ccc2ccc(O)cc32)cc(OC)c1OC (stereo not shown) [Example 4],IC50,7 nM
